Columns and labels:
Adenosine receptor A1 = target: T1, Adenosine receptor A1 (Homo sapiens, UniProt P30542)
T1 sequence (P30542 whole entry): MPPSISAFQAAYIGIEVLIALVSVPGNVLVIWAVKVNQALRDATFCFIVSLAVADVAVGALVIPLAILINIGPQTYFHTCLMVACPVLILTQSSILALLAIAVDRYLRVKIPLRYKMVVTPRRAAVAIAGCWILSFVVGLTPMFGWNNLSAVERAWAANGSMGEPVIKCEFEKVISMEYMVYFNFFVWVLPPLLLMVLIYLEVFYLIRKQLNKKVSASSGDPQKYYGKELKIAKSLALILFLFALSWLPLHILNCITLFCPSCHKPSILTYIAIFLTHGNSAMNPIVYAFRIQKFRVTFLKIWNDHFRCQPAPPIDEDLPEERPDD

[1] = target: Beta-2 adrenergic receptor (Homo sapiens, UniProt P07550)
Vasopressin V1a receptor = Vasopressin V1a receptor (Homo sapiens, UniProt P37288)
Vasopressin V2 receptor = Vasopressin V2 receptor (Homo sapiens, UniProt P30518)
[2] = target: T2, Muscarinic acetylcholine receptor M2 (Homo sapiens, UniProt P08172); type: functional, cell-based
T2 sequence (P08172 whole entry): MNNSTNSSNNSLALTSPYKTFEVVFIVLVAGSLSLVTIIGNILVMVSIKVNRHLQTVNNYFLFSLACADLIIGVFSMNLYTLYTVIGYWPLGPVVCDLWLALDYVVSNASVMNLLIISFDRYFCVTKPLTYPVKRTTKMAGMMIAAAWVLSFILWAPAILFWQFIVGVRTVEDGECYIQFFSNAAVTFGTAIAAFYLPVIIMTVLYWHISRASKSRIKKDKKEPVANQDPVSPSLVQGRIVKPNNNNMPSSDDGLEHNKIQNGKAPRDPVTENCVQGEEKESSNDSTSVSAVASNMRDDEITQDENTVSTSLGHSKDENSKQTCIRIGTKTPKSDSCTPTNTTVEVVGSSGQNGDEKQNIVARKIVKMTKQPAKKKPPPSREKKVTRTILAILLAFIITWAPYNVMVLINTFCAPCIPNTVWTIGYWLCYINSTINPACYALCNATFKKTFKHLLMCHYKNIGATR

Histamine H2 receptor = Histamine H2 receptor (Homo sapiens, UniProt P25021); type: functional, cell-based
[3] = target: 5-hydroxytryptamine receptor 2B (Homo sapiens, UniProt P41595); type: functional, cell-based
Melanocortin receptor 3 = Melanocortin receptor 3 (Homo sapiens, UniProt P41968)
Motilin receptor = Motilin receptor (Homo sapiens, UniProt O43193)
[4] = target: 3',5'-cyclic-AMP phosphodiesterase 4D (Homo sapiens, UniProt Q08499); type: functional
Thromboxane A2 receptor = target: T3, Thromboxane A2 receptor (Homo sapiens, UniProt P21731)
T3 sequence (P21731 whole entry): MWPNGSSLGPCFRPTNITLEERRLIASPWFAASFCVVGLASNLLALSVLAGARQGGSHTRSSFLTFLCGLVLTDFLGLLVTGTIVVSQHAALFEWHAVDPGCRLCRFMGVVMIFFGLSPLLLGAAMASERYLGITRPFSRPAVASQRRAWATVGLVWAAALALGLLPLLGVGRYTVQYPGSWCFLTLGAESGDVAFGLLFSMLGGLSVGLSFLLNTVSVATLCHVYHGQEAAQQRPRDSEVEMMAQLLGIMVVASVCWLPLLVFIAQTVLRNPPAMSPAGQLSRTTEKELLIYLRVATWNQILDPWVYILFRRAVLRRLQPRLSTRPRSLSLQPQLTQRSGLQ

[5] = target: T4, Alpha-1A adrenergic receptor (Homo sapiens, UniProt P35348); type: functional, cell-based
T4 sequence (P35348 whole entry): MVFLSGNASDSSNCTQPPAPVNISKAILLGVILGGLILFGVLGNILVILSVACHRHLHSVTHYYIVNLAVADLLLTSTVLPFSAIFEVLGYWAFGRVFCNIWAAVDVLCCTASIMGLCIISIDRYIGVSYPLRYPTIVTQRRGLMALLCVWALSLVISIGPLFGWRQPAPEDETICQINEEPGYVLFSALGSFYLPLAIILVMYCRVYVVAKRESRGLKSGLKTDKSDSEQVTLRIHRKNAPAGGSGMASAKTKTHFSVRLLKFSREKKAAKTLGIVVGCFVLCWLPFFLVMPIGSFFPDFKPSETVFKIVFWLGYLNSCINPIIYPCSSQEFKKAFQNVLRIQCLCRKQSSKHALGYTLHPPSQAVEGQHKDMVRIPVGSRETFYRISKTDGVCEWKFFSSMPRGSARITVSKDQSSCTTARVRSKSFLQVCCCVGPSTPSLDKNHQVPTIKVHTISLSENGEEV

[6] = target: T5, Alpha-2B adrenergic receptor (Homo sapiens, UniProt P18089)
T5 sequence (P18089 whole entry): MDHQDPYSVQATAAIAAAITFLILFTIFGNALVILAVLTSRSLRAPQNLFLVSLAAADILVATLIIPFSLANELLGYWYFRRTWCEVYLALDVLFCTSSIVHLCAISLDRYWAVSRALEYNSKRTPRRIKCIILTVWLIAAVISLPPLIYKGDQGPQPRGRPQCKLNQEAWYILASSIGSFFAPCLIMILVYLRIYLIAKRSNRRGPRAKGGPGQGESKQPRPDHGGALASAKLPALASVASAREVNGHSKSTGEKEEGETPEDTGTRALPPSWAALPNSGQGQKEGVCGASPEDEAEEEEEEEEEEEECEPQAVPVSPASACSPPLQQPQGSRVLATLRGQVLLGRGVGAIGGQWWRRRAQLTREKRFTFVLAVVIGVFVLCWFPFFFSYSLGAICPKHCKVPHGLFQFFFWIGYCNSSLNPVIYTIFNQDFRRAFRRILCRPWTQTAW

D(3) dopamine receptor = D(3) dopamine receptor (Homo sapiens, UniProt P35462)
Further: assay procedure not described here.

Chain of 5-hydroxytryptamine receptor 2B (P41595 whole entry): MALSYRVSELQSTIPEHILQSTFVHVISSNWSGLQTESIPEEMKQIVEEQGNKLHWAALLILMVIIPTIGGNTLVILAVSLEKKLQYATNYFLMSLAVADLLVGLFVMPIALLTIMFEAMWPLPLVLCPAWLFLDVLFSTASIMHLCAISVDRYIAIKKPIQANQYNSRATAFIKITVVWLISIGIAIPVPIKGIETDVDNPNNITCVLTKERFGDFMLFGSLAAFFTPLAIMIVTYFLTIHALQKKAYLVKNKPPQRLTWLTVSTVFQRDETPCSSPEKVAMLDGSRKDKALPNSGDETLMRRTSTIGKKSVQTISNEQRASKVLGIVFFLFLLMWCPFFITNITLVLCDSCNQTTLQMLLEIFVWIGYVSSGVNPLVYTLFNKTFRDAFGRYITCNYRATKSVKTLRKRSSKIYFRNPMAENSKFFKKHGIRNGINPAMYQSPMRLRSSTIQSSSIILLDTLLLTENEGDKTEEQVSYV
Chain of Beta-2 adrenergic receptor (P07550 whole entry): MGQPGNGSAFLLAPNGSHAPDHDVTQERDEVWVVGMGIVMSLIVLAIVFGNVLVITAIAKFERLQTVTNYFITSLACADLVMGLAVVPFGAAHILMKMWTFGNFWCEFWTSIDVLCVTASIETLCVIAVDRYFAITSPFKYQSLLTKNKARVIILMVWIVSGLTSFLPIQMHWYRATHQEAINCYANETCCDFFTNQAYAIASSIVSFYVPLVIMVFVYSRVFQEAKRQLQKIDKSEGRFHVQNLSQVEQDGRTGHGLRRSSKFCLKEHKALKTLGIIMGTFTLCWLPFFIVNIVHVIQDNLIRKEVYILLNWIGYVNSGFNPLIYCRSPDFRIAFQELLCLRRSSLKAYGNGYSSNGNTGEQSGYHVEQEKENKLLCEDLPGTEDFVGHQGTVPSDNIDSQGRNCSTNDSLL
Chain of Vasopressin V2 receptor (P30518 whole entry): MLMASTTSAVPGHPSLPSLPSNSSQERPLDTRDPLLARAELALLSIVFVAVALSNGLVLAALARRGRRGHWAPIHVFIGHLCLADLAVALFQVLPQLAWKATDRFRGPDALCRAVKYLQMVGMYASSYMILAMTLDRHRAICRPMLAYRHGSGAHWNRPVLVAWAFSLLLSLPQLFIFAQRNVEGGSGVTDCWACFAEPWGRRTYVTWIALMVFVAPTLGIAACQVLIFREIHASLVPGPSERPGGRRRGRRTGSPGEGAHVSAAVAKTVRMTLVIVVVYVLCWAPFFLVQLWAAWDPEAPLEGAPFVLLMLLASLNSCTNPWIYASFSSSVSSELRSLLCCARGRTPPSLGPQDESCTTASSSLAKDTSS
Chain of D(3) dopamine receptor (P35462 whole entry): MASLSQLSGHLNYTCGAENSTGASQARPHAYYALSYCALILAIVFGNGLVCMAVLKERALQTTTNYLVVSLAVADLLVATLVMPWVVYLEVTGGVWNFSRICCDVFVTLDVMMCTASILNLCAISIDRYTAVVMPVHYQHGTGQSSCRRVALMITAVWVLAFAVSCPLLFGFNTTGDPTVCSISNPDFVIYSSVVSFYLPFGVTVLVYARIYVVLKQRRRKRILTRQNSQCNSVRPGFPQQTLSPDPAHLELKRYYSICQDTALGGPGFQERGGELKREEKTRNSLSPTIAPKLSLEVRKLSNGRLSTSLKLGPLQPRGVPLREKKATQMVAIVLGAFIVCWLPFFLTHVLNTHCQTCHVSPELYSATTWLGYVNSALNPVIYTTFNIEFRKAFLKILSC
Chain of 3',5'-cyclic-AMP phosphodiesterase 4D (Q08499 whole entry): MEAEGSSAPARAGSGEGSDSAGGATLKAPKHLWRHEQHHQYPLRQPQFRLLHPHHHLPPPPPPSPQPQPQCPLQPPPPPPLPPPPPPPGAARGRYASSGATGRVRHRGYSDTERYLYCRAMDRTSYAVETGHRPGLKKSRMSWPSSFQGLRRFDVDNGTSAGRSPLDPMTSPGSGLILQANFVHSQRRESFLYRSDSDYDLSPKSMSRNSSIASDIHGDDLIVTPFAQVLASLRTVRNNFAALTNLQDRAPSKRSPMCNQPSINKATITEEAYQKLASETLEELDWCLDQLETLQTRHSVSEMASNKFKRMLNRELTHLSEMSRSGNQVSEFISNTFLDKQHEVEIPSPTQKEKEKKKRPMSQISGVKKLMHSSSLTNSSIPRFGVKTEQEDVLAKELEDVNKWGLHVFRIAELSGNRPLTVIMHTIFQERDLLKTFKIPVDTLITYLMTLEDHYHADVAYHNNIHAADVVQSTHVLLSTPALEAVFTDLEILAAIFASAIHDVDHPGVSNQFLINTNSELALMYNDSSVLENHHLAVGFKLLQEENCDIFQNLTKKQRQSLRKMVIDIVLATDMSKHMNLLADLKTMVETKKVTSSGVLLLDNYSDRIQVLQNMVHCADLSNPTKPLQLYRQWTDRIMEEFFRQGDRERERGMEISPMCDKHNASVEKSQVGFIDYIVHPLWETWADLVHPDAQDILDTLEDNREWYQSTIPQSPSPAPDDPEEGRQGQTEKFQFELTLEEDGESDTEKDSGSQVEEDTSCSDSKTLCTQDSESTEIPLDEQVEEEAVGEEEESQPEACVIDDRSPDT
Chain of Melanocortin receptor 3 (P41968 whole entry): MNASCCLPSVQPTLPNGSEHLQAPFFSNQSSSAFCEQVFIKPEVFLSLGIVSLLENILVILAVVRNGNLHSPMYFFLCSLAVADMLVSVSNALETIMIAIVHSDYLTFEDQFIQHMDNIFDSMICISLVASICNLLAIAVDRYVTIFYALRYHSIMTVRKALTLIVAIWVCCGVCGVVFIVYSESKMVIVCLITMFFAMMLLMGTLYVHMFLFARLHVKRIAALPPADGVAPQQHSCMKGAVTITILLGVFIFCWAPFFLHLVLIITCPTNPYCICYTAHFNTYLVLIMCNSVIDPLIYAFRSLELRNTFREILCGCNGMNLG
Chain of Vasopressin V1a receptor (P37288 whole entry): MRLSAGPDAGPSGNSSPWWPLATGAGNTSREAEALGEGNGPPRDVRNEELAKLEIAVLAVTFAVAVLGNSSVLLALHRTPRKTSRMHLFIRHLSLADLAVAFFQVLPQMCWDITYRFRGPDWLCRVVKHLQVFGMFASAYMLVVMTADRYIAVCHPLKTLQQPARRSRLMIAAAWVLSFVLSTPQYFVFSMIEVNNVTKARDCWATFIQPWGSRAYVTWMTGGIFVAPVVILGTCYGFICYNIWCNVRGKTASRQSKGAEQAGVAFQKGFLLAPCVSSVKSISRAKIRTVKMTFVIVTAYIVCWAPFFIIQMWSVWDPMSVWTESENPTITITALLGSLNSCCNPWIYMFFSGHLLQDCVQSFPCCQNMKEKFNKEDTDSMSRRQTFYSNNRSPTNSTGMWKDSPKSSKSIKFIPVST
Chain of Motilin receptor (O43193 whole entry): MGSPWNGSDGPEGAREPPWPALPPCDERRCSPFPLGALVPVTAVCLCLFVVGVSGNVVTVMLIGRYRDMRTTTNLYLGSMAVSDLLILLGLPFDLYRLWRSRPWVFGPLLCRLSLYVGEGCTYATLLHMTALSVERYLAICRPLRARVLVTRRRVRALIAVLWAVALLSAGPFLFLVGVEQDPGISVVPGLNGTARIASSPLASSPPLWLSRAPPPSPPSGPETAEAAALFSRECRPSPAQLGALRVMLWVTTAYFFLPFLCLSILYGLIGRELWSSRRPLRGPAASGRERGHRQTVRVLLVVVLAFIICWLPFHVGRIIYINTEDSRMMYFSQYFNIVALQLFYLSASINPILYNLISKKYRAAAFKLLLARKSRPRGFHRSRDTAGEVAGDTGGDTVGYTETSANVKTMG
Chain of Histamine H2 receptor (P25021 whole entry): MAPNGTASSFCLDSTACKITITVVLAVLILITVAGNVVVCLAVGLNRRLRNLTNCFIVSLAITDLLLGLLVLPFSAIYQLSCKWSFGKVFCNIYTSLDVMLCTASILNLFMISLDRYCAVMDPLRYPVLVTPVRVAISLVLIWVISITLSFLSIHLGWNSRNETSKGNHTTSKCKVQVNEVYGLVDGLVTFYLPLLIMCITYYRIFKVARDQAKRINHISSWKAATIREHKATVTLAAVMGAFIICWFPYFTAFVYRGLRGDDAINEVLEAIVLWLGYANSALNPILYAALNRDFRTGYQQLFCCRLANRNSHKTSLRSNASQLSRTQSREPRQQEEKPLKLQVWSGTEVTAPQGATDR

Row | SMILES | AC50 (Adenosine receptor A1) [µM] | AC50 [1] [µM] | AC50 (Vasopressin V1a receptor) [µM] | AC50 (Vasopressin V2 receptor) [µM] | AC50 [2] [µM] | AC50 (Histamine H2 receptor) [µM] | AC50 [3] [µM] | AC50 (Melanocortin receptor 3) [µM] | AC50 (Motilin receptor) [µM] | AC50 [4] [µM] | AC50 (Thromboxane A2 receptor) [µM] | AC50 [5] [µM] | AC50 [6] [µM] | AC50 (D(3) dopamine receptor) [µM]
1 | CC[C@H]1CN2CCc3cc(OC)c(OC)cc3[C@@H]2C[C@@H]1C[C@H]1NCCc2cc(OC)c(OC)cc21 [EMETINE] | > 30 | > 30 | > 30 | > 30 | > 30 | > 30 | > 30 | > 30 | > 30 | > 30 | > 30 | > 30 | – | –
2 | O=[N+]([O-])O[C@@H]1CO[C@H]2[C@@H]1OC[C@@H]2O [ISOSORBIDE MONONITRATE] | > 30 | > 10 | > 10 | > 30 | > 10 | > 10 | > 10 | > 30 | > 10 | > 30 | > 30 | – | > 10 | > 10
3 | Cc1cc(C)c(NC(=O)CN(CC(=O)O)CC(=O)O)c(C)c1Br [MEBROFENIN] | – | – | – | – | > 30 | > 30 | > 30 | – | – | > 30 | – | > 30 | > 30 | 22
4 | COc1ccccc1N1CCN(CC(O)COc2cccc3ccccc23)CC1 (configuration not stated) [NAFTOPIDIL] | – | – | – | – | > 30 | 1.3 | > 30 | > 30 | – | > 30 | > 30 | 0.46 | 0.3 | 0.42
5 | COc1cc2nc(N3CCN(C(=O)c4ccco4)CC3)nc(N)c2cc1OC [PRAZOSIN] | > 30 | > 10 | > 10 | > 30 | > 10 | – | > 10 | > 30 | > 10 | > 30 | > 30 | – | – | > 30
6 | O=[N+]([O-])c1cn2c(n1)OC[C@@H](OCc1ccc(OC(F)(F)F)cc1)C2 [PRETOMANID] | > 30 | > 10 | > 10 | > 30 | – | – | – | > 30 | > 10 | > 10 | > 30 | – | > 10 | > 10
7 | Cc1oc(=O)oc1CN1CCN(c2cc3c(cc2F)c(=O)c(C(=O)O)c2n3C(C)S2)CC1 (configuration not stated) [PRULIFLOXACIN] | – | – | – | – | > 30 | > 30 | > 30 | – | – | > 30 | – | > 30 | > 30 | > 30
8 | COC1=C(OC)C(=O)C(C/C=C(\C)CC/C=C(\C)CC/C=C(\C)CC/C=C(\C)CC/C=C(\C)CC/C=C(\C)CC/C=C(\C)CC/C=C(\C)CC/C=C(\C)CCC=C(C)C)=C(C)C1=O [UBIDECARENONE] | – | – | – | – | > 30 | > 30 | > 30 | – | – | > 30 | – | > 30 | > 30 | > 30
9 | CN(C)CCc1c[nH]c2ccc(C[C@H]3COC(=O)N3)cc12 [ZOLMITRIPTAN] | > 30 | – | > 30 | > 30 | > 30 | > 30 | > 30 | > 30 | > 30 | > 30 | – | – | > 30 | > 30
